Laboratory results from ChEMBL document CHEMBL1157022, “Synthesis, cytotoxicity and DNA-binding of novel bisnaphthalimidopropyl derivatives in breast cancer MDA-MB-231 cells” (Eur J Med Chem, 2010).

Columns and labels:
MCF7 = experiment: Cytotoxicity against human MCF7 cells after 48 hrs; type: functional, cell-based; settings: MCF7, 48 h
Nucleic Acid [1] = experiment: Binding affinity to calf thymus DNA assessed as temperature required to cause 50% of DNA denatured at 10 uM by thermal denaturation assay; type: nucleic-acid assay; settings: Bos taurus
MDA-MB-231 [2] = experiment: Cytotoxicity against human MDA-MB-231 cells after 24 hrs by MTT assay; type: functional, cell-based; settings: MDA-MB-231, 24 h
MDA-MB-231 [3] = experiment: Cytotoxicity against human MDA-MB-231 cells after 48 hrs by MTT assay; type: functional, cell-based; settings: MDA-MB-231, 48 h
[4] = Cytotoxicity against human MCF10A cells after 24 hrs by MTT assay; type: cell-based; settings: MCF-10A
[5] = Cytotoxicity against human MCF10A cells after 48 hrs by MTT assay; type: cell-based; settings: MCF-10A
Nucleic Acid [6] = experiment: Displacement of ethidium bromide from calf thymus DNA assessed as decrease of fluorescence of bound ethidium bromide by fluorometric assay; type: nucleic-acid assay; settings: Bos taurus
CHO = experiment: Cytotoxicity against CHO cells expressing MGBG polyamine transporter after 48 hrs by MTT assay; type: ADME, cell-based; settings: Cricetulus griseus
CHO-MG = experiment: Cytotoxicity against MGBG polyamine transporter deficient CHO-MG cells after 48 hrs by MTT assay; type: ADME, cell-based; settings: Cricetulus griseus
[7] = test system: MGBG polyamine transporter; experiment: Ratio of IC50 for MGBG polyamine transporter deficient CHO-MG cells to IC50 for CHO cells expressing MGBG polyamine transporter; type: cell-based, Cricetulus griseus; settings: chinese hamster; read-out: Ratio IC50
MDA-MB-231 [8] = experiment: Drug uptake in human MDA-MB-231 cells at 10 uM after 6 hrs by fluorescence microscopic analysis; type: ADME, cell-based; settings: mda-mb-231, 6 h
MDA-MB-231 [9] = experiment: Drug uptake in human MDA-MB-231 cells at 10 uM after 0.5 hrs by fluorescence microscopic analysis; type: ADME, cell-based; settings: mda-mb-231, 0.5 h

SMILES: O=C1c2cccc3cccc(c23)C(=O)N1CCCNCCCNCCCCNCCCNCCCN1C(=O)c2cccc3cccc(c23)C1=O
- IC50 (MCF7): 1.38 µM

SMILES: COc1cccc2c1C(=O)c1c(O)c3c(c(O)c1C2=O)C[C@@](O)(C(=O)CO)C[C@@H]3O[C@H]1C[C@H](N)[C@H](O)[C@H](C)O1 [DOXORUBICIN]
- Tm (Nucleic Acid [1]): 86.4 °C
- IC50 (MDA-MB-231 [2]): 14.3 µM
- IC50 (MDA-MB-231 [3]): 3.61 µM
- IC50 [4]: 0.75 µM
- IC50 [5]: 0.18 µM

SMILES: Br.O=C1c2cccc3cccc(c23)C(=O)N1CCCNCCCCNCCCNCCCN1C(=O)c2cccc3cccc(c23)C1=O [BISNAPHTHALIMIDOPROPYL SPERMIDINE TRIHYDROBROMIDE]
- Tm (Nucleic Acid [1]): 91.5 °C
- C50 (Nucleic Acid [6]): 1.4 µM
- IC50 (MCF7): 1.38 µM
- IC50 (MDA-MB-231 [2]): 12.7 µM
- IC50 (MDA-MB-231 [3]): 4.59 µM
- IC50 [4]: 4.19 µM
- IC50 [5]: 3.97 µM
- IC50 (CHO): 76.5 µM
- IC50 (CHO-MG): 74.6 µM
- selectivity ratio [7]: 1
- Drug uptake (MDA-MB-231 [8]): Active

SMILES: O=C1c2cccc3cccc(c23)C(=O)N1CCCNCCCCNCCCN1C(=O)c2cccc3cccc(c23)C1=O
- Tm (Nucleic Acid [1]): 89.2 °C
- C50 (Nucleic Acid [6]): 1.5 µM
- IC50 (MDA-MB-231 [2]): 7.86 µM
- IC50 (MDA-MB-231 [3]): 5.12 µM
- IC50 [4]: 8.1 µM
- IC50 [5]: 5.67 µM

SMILES: Br.O=C1c2cccc3cccc(c23)C(=O)N1CCCNCCCCCCCCNCCCN1C(=O)c2cccc3cccc(c23)C1=O
- Tm (Nucleic Acid [1]): 88.7 °C
- C50 (Nucleic Acid [6]): 1.7 µM
- IC50 (MDA-MB-231 [2]): 4.99 µM
- IC50 (MDA-MB-231 [3]): 2.68 µM
- IC50 [4]: 2.77 µM
- IC50 [5]: 0.87 µM
- IC50 (CHO): 5.8 µM
- IC50 (CHO-MG): 5.1 µM
- selectivity ratio [7]: 0.9
- Drug uptake (MDA-MB-231 [9]): Active

SMILES: NCCCN1C(=O)c2cccc3cccc(c23)C1=O [NAPHTHALIMIDOPROPYLAMINE]
- Tm (Nucleic Acid [1]): 66.3 °C
- C50 (Nucleic Acid [6]): > 10 µM
- IC50 (MDA-MB-231 [2]): > 40 µM
- IC50 (MDA-MB-231 [3]): > 40 µM
- IC50 [4]: > 40 µM
- IC50 [5]: > 40 µM

SMILES: O=C1c2cccc3cccc(c23)C(=O)N1CCCNCCCCCCCCCCNCCCN1C(=O)c2cccc3cccc(c23)C1=O [BNIPDADEC]
- Tm (Nucleic Acid [1]): 84.4 °C
- C50 (Nucleic Acid [6]): 1.8 µM
- IC50 (MDA-MB-231 [2]): 4.85 µM
- IC50 (MDA-MB-231 [3]): 3.32 µM
- IC50 [4]: 2.77 µM
- IC50 [5]: 2.82 µM

SMILES: O=C1c2cccc3cccc(c23)C(=O)N1CCCNCCCCCCNCCCN1C(=O)c2cccc3cccc(c23)C1=O
- Tm (Nucleic Acid [1]): 91.9 °C
- C50 (Nucleic Acid [6]): 1.5 µM
- IC50 (MDA-MB-231 [2]): 7.22 µM
- IC50 (MDA-MB-231 [3]): 4.54 µM
- IC50 [4]: 0.84 µM
- IC50 [5]: 0.83 µM

SMILES: O=C1c2cccc3cccc(c23)C(=O)N1CCCNCCCCCCCCCCCCNCCCN1C(=O)c2cccc3cccc(c23)C1=O
- Tm (Nucleic Acid [1]): 81.2 °C
- C50 (Nucleic Acid [6]): 3.4 µM
- IC50 (MDA-MB-231 [2]): 5.11 µM
- IC50 (MDA-MB-231 [3]): 6.88 µM
- IC50 [4]: 4.17 µM
- IC50 [5]: 6.83 µM

SMILES: CN1CCN(c2ccc3[nH]c(-c4ccc5[nH]c(-c6ccc(O)cc6)nc5c4)nc3c2)CC1
- Tm (Nucleic Acid [1]): 78.8 °C

SMILES: O=C1c2cccc3cccc(c23)C(=O)N1CCCNC1CCCC(CC2CCCC(NCCCN3C(=O)c4cccc5cccc(c45)C3=O)C2)C1 (configuration not stated)
- Tm (Nucleic Acid [1]): 87.4 °C
- C50 (Nucleic Acid [6]): 3.8 µM
- IC50 (MDA-MB-231 [2]): 6.84 µM
- IC50 (MDA-MB-231 [3]): 6.06 µM
- IC50 [4]: 6.06 µM
- IC50 [5]: 5.71 µM
- IC50 (CHO): 6.2 µM
- IC50 (CHO-MG): 6.3 µM
- selectivity ratio [7]: 1

SMILES: Br.O=C1c2cccc3cccc(c23)C(=O)N1CCCNCCOCCOCCNCCCN1C(=O)c2cccc3cccc(c23)C1=O
- Tm (Nucleic Acid [1]): 87.9 °C
- C50 (Nucleic Acid [6]): 1.9 µM
- IC50 (MDA-MB-231 [2]): 12.4 µM
- IC50 (MDA-MB-231 [3]): 6.15 µM
- IC50 [4]: 6.1 µM
- IC50 [5]: 2.27 µM
- IC50 (CHO): 76.1 µM
- IC50 (CHO-MG): 26.9 µM
- selectivity ratio [7]: 0.4
- Drug uptake (MDA-MB-231 [8]): Active

SMILES: CC(/C=N/NC(=N)N)=N\NC(=N)N [MITOGUAZONE]
- IC50 (CHO): 3.3 µM
- IC50 (CHO-MG): > 100 µM
- selectivity ratio [7]: > 30.2

SMILES: O=C1c2ccccc2C(=O)N1CCCNCCCCCCCCCCNCCCN1C(=O)c2ccccc2C1=O
- Tm (Nucleic Acid [1]): 72 °C
- C50 (Nucleic Acid [6]): > 10 µM
- IC50 (MDA-MB-231 [2]): > 40 µM
- IC50 (MDA-MB-231 [3]): > 40 µM
- IC50 [4]: > 40 µM
- IC50 [5]: > 40 µM

SMILES: O=C1c2c(O)ccc(O)c2C(=O)c2c(NCCNCCO)ccc(NCCNCCO)c21
- Tm (Nucleic Acid [1]): 91 °C
